Reference: patent US5266576A, “N-myristoyl transferase inhibitors” (Adir et Compagnie, priority 1991, dated 1993)
Like-named read-outs stand apart in the source and are kept apart here.

Tests used:
[1] = target: T1, cytosolic NMT (N-myristoyltransferase) of L1210 cells (Mus musculus, UniProt O70310); assay: Inhibition of the cytosolic NMT activity of cancerous L1210 cells; format: biochemical, murine
T1 construct: The supernatant is then used as a source of NMT; endogenous in cells; host or cells: L1210 murine leukemia cells, cytosol (105,000 g supernatant)
T1 sequence (O70310 1-496): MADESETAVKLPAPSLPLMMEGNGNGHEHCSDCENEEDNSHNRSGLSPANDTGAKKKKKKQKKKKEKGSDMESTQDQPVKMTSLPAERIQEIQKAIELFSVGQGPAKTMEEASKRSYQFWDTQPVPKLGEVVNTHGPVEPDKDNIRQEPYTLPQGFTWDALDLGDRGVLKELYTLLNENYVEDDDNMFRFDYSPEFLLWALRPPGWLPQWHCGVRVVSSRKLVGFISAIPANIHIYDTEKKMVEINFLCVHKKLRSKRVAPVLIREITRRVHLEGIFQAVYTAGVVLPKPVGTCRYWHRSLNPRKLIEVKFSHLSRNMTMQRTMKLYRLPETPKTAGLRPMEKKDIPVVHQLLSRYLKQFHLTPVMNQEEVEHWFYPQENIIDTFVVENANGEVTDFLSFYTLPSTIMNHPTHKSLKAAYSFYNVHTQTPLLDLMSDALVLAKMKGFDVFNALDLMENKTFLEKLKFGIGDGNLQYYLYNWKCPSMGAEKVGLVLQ
Experimental: Mass-cultured L1210 cells (murine leukemia) are used as a source of […].
They are cultured in RPMI 1640 supplemented with 50 U/ml of penicillin, […] of streptomycin, 2 mM of glutamine, 10 mM HEPES and 10% of fetal calf serum, maintained in a 5% CO2 /95% air atmosphere and at 37° C.
They are harvested and then washed in PBS by centrifuging at low speed. The final cell pellet is resuspended in a 50 mM HEPES buffer, pH 7.4, containing 2 mM EGTA, 1 mM DTT and 1 mM PMSF. The cells are opened by sonication at 4° C. and homogenized by a to and fro movement in a glass/glass Potter. The cell homogenate is then centrifuged at low speed (10,000 rpm, 10 minutes) in order to precipitate the cell debris and the supernatant is subjected to ultracentrifugation at 105,000 g for 1 hour.
The supernatant is then used as a source of NMT. The measurement of activity is carried out according to the method described by Towler and Glazer (PNAS, 1986, 83, 2812) using as substrate peptide either the peptide derived from the NH2 terminal of the pp60src oncogene product: GSSKSKPKDP (DP), or the peptide derived from the NH2 terminal of the gag product, a structural protein of the Maloney murine leucemic virus: GQTVTTPL (T3) at a final concentration of 0.3 mM.

[2] = target: T2, microsomal NMT of CEM cells (Homo sapiens, UniProt P30419); assay: Inhibition of the myristoylation of a gag-derived peptide of HIV-1 (subtype BRU), microsomal fraction of CEM cells; format: biochemical; details: 20-AA p18 peptide of HIV-1 (subtype BRU), 30 minutes at 37° C., read-out: IC50 during incubation with the microsomal fraction
T2 construct: The pellet (microsomes) and the supernatant (cytosol) are recovered independently and then frozen; endogenous in cells; host or cells: CEM immortalized T lymphocytes, microsomal pellet (105,000 g), treated with Triton 770
T2 sequence (P30419 1-496): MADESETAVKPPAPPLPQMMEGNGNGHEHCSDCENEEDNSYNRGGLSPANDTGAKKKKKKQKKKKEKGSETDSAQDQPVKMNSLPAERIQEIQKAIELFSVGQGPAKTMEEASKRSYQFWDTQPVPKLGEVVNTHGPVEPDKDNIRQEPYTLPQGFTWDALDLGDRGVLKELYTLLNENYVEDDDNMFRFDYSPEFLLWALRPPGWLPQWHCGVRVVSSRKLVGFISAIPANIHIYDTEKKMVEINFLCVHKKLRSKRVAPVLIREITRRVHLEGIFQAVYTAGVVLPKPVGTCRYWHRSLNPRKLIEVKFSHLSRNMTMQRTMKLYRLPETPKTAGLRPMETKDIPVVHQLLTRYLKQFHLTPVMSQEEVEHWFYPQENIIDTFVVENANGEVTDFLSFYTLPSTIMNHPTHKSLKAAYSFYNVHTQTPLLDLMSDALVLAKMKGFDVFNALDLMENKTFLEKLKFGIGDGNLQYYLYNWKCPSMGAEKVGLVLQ
Experimental: Immortalized T lymphocytes (CEM) are mass- cultured as described in Example 57, and then harvested by centrifugation and washed in PBS.
These cells are sonicated (3 brief periods of 10 seconds) and then homogenized in a glass/glass Potter.
This homogenate, in which all the cells have been opened (checked under a microscope), is subjected to centrifugation for 1 h 10) at 105,000 g. The pellet (microsomes) and the supernatant (cytosol) are recovered independently and then frozen.
The NMT activity is then measured following the procedure of Towler and Glaser but stopping the reaction with […] of acetonitrile in order to avoid precipitation of the myristoylated peptide. This 20-AA peptide: NH2^[…] COOH, is derived from p18 of the HIV-1 virus (subtype BRU).
These experimentations are carried out using a cytosolic (40 μl) or microsomal (20 μl treated with 4 μl of 10% Triton 770) source of CEM cells in the presence of increasing concentrations of the compounds of the invention (1 to 1,000 μM, final). The samples, incubated for 30 minutes at 37° C. and stopped with 200 μl of acetonitrile, are then analyzed by HPLC and the myristoylation of p18 quantified.

HL60 cells = assay: Differentiation of cultured HL60 cells; format: cell-based, human
Experimental: Cultured HL60 cells are treated for 6 days with the compounds dissolved in a minimum of methanol at 9 different concentrations. The doses chosen encompass the IC50 determined beforehand using the MTT test (Carmichael et al., Cancer Res., 1986, 47, 936).
The cells are washed (450 μl), resuspended in the same volume of complete medium and incubated for 1 hour at 37° C. in the presence of 7 ug/ml of DNA-specific fluorochrome.
The measurements, which are carried out by means of a laser cytometer, make it possible to estimate the percentage of cells accumulated, and therefore differentiated, in the G0 and G1 phase of the cell cycle.

HIV-1 virus = assay: Protective effect on CEM cells against infection by the HIV virus; format: cell-based
Text: The method used is described by […] et al. (J. Natl. Cancer Inst., 1989, 81, 577).

[3] = Toxicity on CEM cells in the HIV protection test; format: cell-based; details: human, method of WEISLOW et al., unit printed m, read-out: toxicity (IC50)
Text: The method used is described by WEISLOW et al. (J. Natl. Cancer Inst., 1989, 81, 577).

[4] = HL60 cells, 6 days, cells accumulated in G0 and G1 phase, laser cytometer

Compound	IC50 ([1]; cytosolic NMT of L1210 cells, substrate peptide DP (pp60src) or T3 (gag), 0.3 mM, read-out: IC50) [µM]	IC50 [2] [µM]	doses to which the marked differentiating effect can extend (HL60 cells; [4])	IC50 [1] [µM]	doses to which the marked differentiating effect can extend (HL60 cells; 144 h)	EC50 (HIV-1 virus; Human immunodeficiency virus 1, CCRF-CEM, HIV infection, method of WEISLOW et al.) [µM]	therapeutic index (HIV-1 virus; toxicity IC50 / protective EC50)	CC50 [3] [µM]
CCCCCCCCCCCCCC(=O)N1Cc2ccccc2C[C@H]1C(=O)O [Example 1, N-Myristoyl-3-(S)-carboxy-(1,2,3,4)-tetrahydroisoquinoline]	0.18	100	below 50 ug/ml					
CCCCCCCCCCCCCC(=O)NC(Cc1ccccc1)P(=O)(O)OCC (stereo not drawn) [Example 16, ETHYL 1-MYRISTOYLAMINO-2-[…]]				2	below 50 ug/ml			
COCCCCCCCCCCCC(=O)N[C@@H](Cc1ccccc1)C(=O)O [Example 49, N-(12-METHOXYLAUROYL)-(S)-PHENYLALANINE]			below 50 ug/ml			10	20	200
